Where only a bound is given, the exact number is not on record here.

Drawing on patent US20080221093A1, “Metalloprotease inhibitors containing a heterocyclic moiety” (priority 2007, published 2008), this text covers IC50 for 2 molecules.

This test concerns the target T1, catalytic domain of MMP-13 enzyme (Homo sapiens, UniProt P45452).
T1 construct: stock solution of catalytic domain of MMP-13 enzyme; purchased Invitek (Berlin) 30100812
The test can be described thus: Assay for determining MMP-13 inhibition (fluorescent substrate). The test is classed as biochemical. To be noted: compounds named as lower than 100 nM. How it is done:
Assay for Determining MMP-13 Inhibition
The typical assay for MMP-13 activity is carried out in assay buffer comprised of 50 mM Tris, pH 7.5, 150 mM NaCl, 5 mM CaCl2 and 0.05% Brij-35. Different concentrations of tested compounds are prepared in assay buffer in 50 μL aliquots. 10 μL of a 50 nM stock solution of catalytic domain of MMP-13 enzyme (produced by Alantos or commercially available from Invitek (Berlin), Cat.# 30100812) is added to the compound solution. The mixture of enzyme and compound in assay buffer is thoroughly mixed and incubated for 10 min at room temperature. Upon the completion of incubation, the assay is started by addition of 40 μL of a 12.5 μM stock solution of MMP-13 fluorescent substrate (Calbiochem, Cat. No. 444235). The time-dependent increase in fluorescence is measured at the 320 nm excitation and 390 nm emission by automatic plate multireader. The IC50 values are calculated from the initial reaction rates.

With `O=C1COc2ccc(CNC(=O)c3cnc4ccccc4n3)cc2N1` [3/137], the half-maximal inhibitory concentration (IC50) was less than 100 nM. For the molecule `O=C1COc2ccc(CNC(=O)C3NC(=O)c4ccccc4N3)cc2N1` (centres unmarked) [Example 1/4], the IC50 was less than 100 nM.

In general, IC50 refers to the point on the concentration scale where inhibition reaches its midpoint. High values mean weaker potency, low ones greater potency.
